Results as given in patent US8435587B2, “High-potency sweetener composition with long-chain primary aliphatic saturated alcohol and compositions sweetened therewith” (The Coca-Cola Company, priority 2005, dated 2013).

Assays:
[1] = Rate of dissolution of rebaudioside A forms in H2O at 25° C.; assay type: physicochemical
[2] = assay type: physicochemical
Procedure: A solution of rebaudioside A (>97% pure by HPLC) was prepared in double distilled water (12.5 gm in 50 mL, 25% concentration) by stirring the mixture at 40° C. for 5 minutes. An amorphous form of rebaudioside A was formed by immediately using the clear solution for spray drying with the Lab-Plant spray drier SD-04 instrument (Lab-Plant Ltd., West Yorkshire, U.K.). The solution was fed through the feed pump into the nozzle atomizer which atomized it into a spray of droplets with the help of a constant flow of nitrogen/air. […] This dry powder (11-12 g, H2O 6.74%) was discharged continuously from the drying chamber and was collected in a bottle.

[3] = Sensory evaluation of sweetness linger and sugar-like taste by expert panel; assay type: in vivo; set-up: key: 0: no sweetness linger; 1: very slight sweetness linger; 2: slight sweetness linger; 3: moderate sweetness linger; 4: moderately high sweetness linger; 5: high sweetness linger
Procedure: As used herein, the phrases “sugar-like characteristic,” “sugar-like taste,” “sugar-like sweet,” “sugary,” and “sugar-like” are synonymous. […] These characteristics are dimensions in which the taste of sucrose is different from the tastes of natural and synthetic high-potency sweeteners. Whether or not a characteristic is more sugar-like is determined by expert sensory panel assessments of sugar and compositions comprising at least one natural and/or synthetic high-potency sweetener, both with and without a sweet taste improving composition. Such assessments quantify similarities of the characteristics of compositions comprising at least one natural and/or synthetic high-potency sweetener, both with and without a sweet taste improving composition, with those comprising sugar. Suitable procedures for determining whether a composition has a more sugar-like taste are well known in the art.
In a particular embodiment, a panel of assessors is used to measure the reduction of sweetness linger. […] A decrease in score for a time point measured after the sample has cleared the mouth indicates there has been a reduction in sweetness perception. […]

[4] = Sweetness level as sucrose equivalent

| Structure (SMILES) | Rate of dissolution in H2O at 25° C. ([1]; H2O, 25° C.) | Rate of dissolution in H2O at 25° C. ([1]; in words) | Solubility in water [2] [%] | Sweetness linger rating ([3]; control: 400 ppm REBA in citric acid/potassium citrate composition, no additive) | Sweetness linger rating ([3]; control: 500 ppm REBA in carbon-treated water, phosphoric acid pH 2.4-2.5, no additive) | Sucrose equivalent ([4]; 180 ppm rebaudioside A in diluted beverage) [% sucrose] | Sucrose equivalent ([4]; 400 ppm REBA) [g sucrose] |
| --- | --- | --- | --- | --- | --- | --- | --- |
| C=C1C[C@@]23CC[C@H]4[C@@](C)(CCC[C@@]4(C)C(=O)O[C@@H]4O[C@H](CO)[C@@H](O)[C@H](O)[C@H]4O)[C@@H]2CC[C@]1(O[C@@H]1O[C@H](CO)[C@@H](O)[C@H](O[C@@H]2O[C@H](CO)[C@@H](O)[C@H](O)[C@H]2O)[C@H]1O[C@@H]1O[C@H](CO)[C@@H](O)[C@H](O)[C@H]1O)C3 [Form 2, rebaudioside A] | (<30%/ %/5 minutes | Intermediate |  |  |  |  |  |
| C=C1C[C@@]23CC[C@H]4[C@@](C)(CCC[C@@]4(C)C(=O)O[C@@H]4O[C@H](CO)[C@@H](O)[C@H](O)[C@H]4O)[C@@H]2CC[C@]1(O[C@@H]1O[C@H](CO)[C@@H](O)[C@H](O[C@@H]2O[C@H](CO)[C@@H](O)[C@H](O)[C@H]2O)[C@H]1O[C@@H]1O[C@H](CO)[C@@H](O)[C@H](O)[C@H]1O)C3 [Form 4, rebaudioside A] | (>35.0%/ %/5 minutes | High | > 35.0 |  |  |  |  |
| C=C1C[C@@]23CC[C@H]4[C@@](C)(CCC[C@@]4(C)C(=O)O[C@@H]4O[C@H](CO)[C@@H](O)[C@H](O)[C@H]4O)[C@@H]2CC[C@]1(O[C@@H]1O[C@H](CO)[C@@H](O)[C@H](O[C@@H]2O[C@H](CO)[C@@H](O)[C@H](O)[C@H]2O)[C@H]1O[C@@H]1O[C@H](CO)[C@@H](O)[C@H](O)[C@H]1O)C3 [Form 1, rebaudioside A] | (<0.2%/ %/60 minutes | Very low |  |  |  |  |  |
| C=C1C[C@@]23CC[C@H]4[C@@](C)(CCC[C@@]4(C)C(=O)O[C@@H]4O[C@H](CO)[C@@H](O)[C@H](O)[C@H]4O)[C@@H]2CC[C@]1(O[C@@H]1O[C@H](CO)[C@@H](O)[C@H](O[C@@H]2O[C@H](CO)[C@@H](O)[C@H](O)[C@H]2O)[C@H]1O[C@@H]1O[C@H](CO)[C@@H](O)[C@H](O)[C@H]1O)C3 [Form 3, rebaudioside A] | (>30%/ %/5 minutes | High |  |  |  |  |  |
| C=C1C[C@@]23CC[C@H]4[C@@](C)(CCC[C@@]4(C)C(=O)O[C@@H]4O[C@H](CO)[C@@H](O)[C@H](O)[C@H]4O)[C@@H]2CC[C@]1(O[C@@H]1O[C@H](CO)[C@@H](O)[C@H](O[C@@H]2O[C@H](CO)[C@@H](O)[C@H](O)[C@H]2O)[C@H]1O[C@@H]1O[C@H](CO)[C@@H](O)[C@H](O)[C@H]1O)C3 [REBA, rebaudioside A] |  |  |  | 5 | 5 | 5 | 8 |
